Assay results taken from US9884818B2, “Sulphamoylpyrrolamide derivatives and the use thereof as medicaments for the treatment of hepatitis B” (Janssen Sciences Ireland UC, priority 2013, dated 2018).

Legend:
HBV [1] = assay: Anti-HBV activity, HepG2.2.15 stable transfected cell line, HBV DNA from secreted virions by realtime PCR; type: cell-based; settings: Hepatitis B virus, HepG2.2.15, 144 h, HepG2.2.15 cells, 6 days of treatment, HBV DNA from secreted virions; read-out: HepG2 2.15 EC50
HBV [2] = assay: Anti-HBV activity, HepG2.117 inducibly HBV producing cell line (Tet-off), intracellular HBV DNA by realtime PCR; type: cell-based; settings: Hepatitis B virus, HepG2.117, 72 h, HepG2.117 cells, 3 days of treatment, intracellular HBV DNA; read-out: HepG2 117 EC50
[3] = Cytotoxicity in HepG2 cells, Resazurin viability assay; settings: human, HepG2 cells, HepG2 4 days CC50 (μM), incubated for 4 days, Resazurin assay

Row | SMILES | EC50 (HBV [1]) | EC50 (HBV [2]) | CC50 at 4 days [3]
1 | Cn1cc(S(=O)(=O)NC2(C)COC2)cc1C(=O)Nc1ccc(F)c(Cl)c1 [Compound 78, N-(3-Chloro-4-fluorophenyl)-1-methyl-4-[(3-methyloxetan-3-yl)sulfamoyl]-1H-pyrrole-2-carboxamide] | 20 nM | 30 nM | > 25 µM
2 | C[C@@H](NS(=O)(=O)c1cn(C)c(C(=O)Nc2ccc(F)c(C#N)c2)c1Cl)C(F)(F)F [Compound 199, 3-Chloro-N-(3-cyano-4-fluorophenyl)-1-methyl-4-{[(1R)-2,2,2-trifluoro-1-methylethyl]sulfamoyl}-1H-pyrrole-2-carboxamide] | 6 nM | 8 nM | > 25 µM
3 | CC[C@@H](C)NS(=O)(=O)c1cc(C(=O)Nc2ccc(F)c(F)c2)n(C)c1 [Compound 23, N-(3,4-difluorophenyl)-1-methyl-4-[[(1R)-1-methylpropyl]sulfamoyl]pyrrole-2-carboxamide] | 20 nM | 130 nM | > 25 µM
4 | Cn1cc(S(=O)(=O)NC2(C)COC2)c(F)c1C(=O)Nc1ccc(F)c(Cl)c1F [Compound 215, N-(3-Chloro-2,4-difluorophenyl)-3-fluoro-1-methyl-4-[(3-methyloxetan-3-yl)sulfamoyl]-1H-pyrrole-2-carboxamide] | 20 nM | 10 nM | > 25 µM
5 | CC(C)NS(=O)(=O)c1cc(C(=O)Nc2cc(F)c(F)c(Cl)c2)n(C)c1 [Compound 57, N-(3-chloro-4,5-difluoro-phenyl)-4-(isopropylsulfamoyl)-1-methyl-pyrrole-2-carboxamide] | 60 nM | 50 nM | > 25 µM
6 | Cn1cc(S(=O)(=O)NC2(C)COC2)cc1C(=O)Nc1ccc(F)c(C(F)(F)F)c1 [Compound 43, N-[4-fluoro-3-(trifluoromethyl)phenyl]-1-methyl-4-[(3-methyloxetan-3-yl)-sulfamoyl]pyrrole-2-carboxamide] | 110 nM | 130 nM | > 25 µM
7 | Cn1cc(S(=O)(=O)NC2(C(F)(F)F)CCC2)c(Cl)c1C(=O)Nc1ccc(F)c(C#N)c1 [Compound 221, 3-Chloro-N-(3-cyano-4-fluorophenyl)-1-methyl-4-{[1-(trifluoro-methyl)cyclobutyl]sulfamoyl}-1H-pyrrole-2-carboxamide] | 7 nM | 6 nM | > 25 µM
8 | [2H]c1cc(F)c(C)c([2H])c1NC(=O)c1cc(S(=O)(=O)NC(C([2H])([2H])[2H])(C([2H])([2H])[2H])C([2H])([2H])[2H])cn1C [Compound 70, N-(2,6-dideuterio-4-fluoro-3-methyl-phenyl)-1-methyl-4-[[2,2,2-trideuterio-1,1-bis(trideuteriomethyl)ethyl]sulfamoyl]pyrrole-2-carboxamide] | 20 nM | 40 nM | > 25 µM
9 | CCC(C)(NS(=O)(=O)c1cc(C(=O)Nc2ccc(F)c(C#N)c2)n(C)c1)C(F)(F)F (stereo not drawn) [Compound 246, N-(3-cyano-4-fluoro-phenyl)-1-methyl-4-{[1-methyl-1-(trifluoro-methyl)propyl]sulfamoyl}-1H-pyrrole-2-carboxamide] | 50 nM | 60 nM | > 25 µM
10 | Cn1cc(S(=O)(=O)NC(C)(C)CCO)cc1C(=O)Nc1ccc(F)c(C#N)c1 [Compound 296, N-(3-cyano-4-fluoro-phenyl)-4-[(3-hydroxy-1,1-dimethyl-propyl)sulfamoyl]-1-methyl-pyrrole-2-carboxamide] | 100 nM | 230 nM | > 25 µM
11 | Cc1cc(NC(=O)c2cc(S(=O)(=O)NC(C)C)c[nH]2)ccc1F [Compound 1, N-(4-fluoro-3-methyl-phenyl)-4-(isopropylsulfamoyl)-1H-pyrrole-2-carboxamide] | 420 nM | 3100 nM | > 25 µM
12 | Cn1cc(S(=O)(=O)NC2(C)COC2)cc1C(=O)Nc1ccc(Cl)c(F)c1 [Compound 84] | 460 nM | 610 nM | > 25 µM
13 | Cn1cc(S(=O)(=O)NC(C)(C)C(F)(F)F)cc1C(=O)Nc1ccc(F)c(C#N)c1 [Compound 237, N-(3-Cyano-4-fluorophenyl)-1-methyl-4-[(2,2,2-trifluoro-1,1-di-methylethyl)sulfamoyl]-1H-pyrrole-2-carboxamide] | 80 nM | 100 nM | > 25 µM
14 | C[C@@H](NS(=O)(=O)c1cn(C)c(C(=O)Nc2ccc(F)c(C(F)F)c2F)c1Cl)C(F)(F)F [Compound 278, 3-chloro-N-[3-(difluoromethyl)-2,4-difluoro-phenyl]-1-methyl-4-[[(1R)-2,2,2-trifluoro-1-methyl-ethyl]sulfamoyl]pyrrole-2-carboxamide] | 6 nM | 10 nM | > 25 µM
15 | Cn1cc(S(=O)(=O)NC23CC(C2)C3)cc1C(=O)Nc1cc(F)c(F)c(Cl)c1 [Compound 167, 4-(Bicyclo[1.1.1]pent-1-ylsulfamoyl)-N-(3-chloro-4,5-difluorophenyl)-1-methyl-1H-pyrrole-2-carboxamide] | 120 nM | 310 nM | > 25 µM
16 | CC(C)NS(=O)(=O)c1cc(C(=O)Nc2cccc(C#N)c2)n(C)c1 [Compound 177, N-(3-Cyanophenyl)-1-methyl-4-[(1-methylethyl)sulfamoyl]-1H-pyrrole-2-carboxamide] | 330 nM | 260 nM | > 25 µM
17 | CC(CC(F)(F)F)NS(=O)(=O)c1cc(C(=O)Nc2ccc(F)c(Cl)c2F)n(C)c1 (stereo not drawn) [Compound 260, N-(3-chloro-2,4-difluoro-phenyl)-1-methyl-4-[(3,3,3-trifluoro-1-methylpropyl)sulfamoyl]-1H-pyrrole-2-carboxamide] | 70 nM | 90 nM | > 25 µM
18 | C[C@@H](NS(=O)(=O)c1cn(C)c(C(=O)Nc2cccc(C#N)c2F)c1F)C(F)(F)F [Compound 182, N-(3-Cyano-2-fluorophenyl)-3-fluoro-1-methyl-4-{[(1R)-2,2,2-trifluoro-1-methylethyl]sulfamoyl}-1H-pyrrole-2-carboxamide] | 10 nM | 30 nM | > 25 µM
19 | Cn1cc(S(=O)(=O)NC2(C)CC(F)(F)C2)cc1C(=O)Nc1ccc(F)c(C#N)c1 [Compound 245, N-(3-cyano-4-fluoro-phenyl)-4-[(3,3-difluoro-1-methyl-cyclobutyl)sulfamoyl]-1-methyl-1H-pyrrole-2-carboxamide] | 40 nM | 40 nM | > 25 µM
20 | Cn1cc(S(=O)(=O)NC2(C)COC2)cc1C(=O)Nc1cc(F)c(F)c(Br)c1 [Compound 48, N-(3-bromo-4,5-difluoro-phenyl)-1-methyl-4-[(3-methyloxetan-3-yl)-sulfamoyl]pyrrole-2-carboxamide] | 50 nM | 60 nM | > 25 µM
21 | Cn1cc(S(=O)(=O)NC(C)(C)C)cc1C(=O)Nc1cccc(C#N)c1 [Compound 191, 4-(tert-Butylsulfamoyl)-N-(3-cyanophenyl)-1-methyl-1H-pyrrole-2-carboxamide] | 180 nM | 160 nM | > 25 µM
22 | Cn1cc(S(=O)(=O)NC2(C)COC2)c(F)c1C(=O)Nc1ccc(F)c(C#N)c1 [Compound 113, N-(3-cyano-4-fluoro-phenyl)-3-fluoro-1-methyl-4-[(3-methyloxetan-3-yl)sulfamoyl]pyrrole-2-carboxamide] | 30 nM | 20 nM | > 25 µM
23 | Cn1cc(S(=O)(=O)NC2(C)CC(F)(F)C2)cc1C(=O)Nc1cc(F)c(F)c(Cl)c1 [Compound 65, N-(3-chloro-4,5-difluoro-phenyl)-4-[(3,3-difluoro-1-methyl-cyclo-butyl)sulfamoyl]-1-methyl-pyrrole-2-carboxamide] | 10 nM | 10 nM | > 25 µM
24 | CC(C)NS(=O)(=O)c1cc(C(=O)Nc2cccc(C#N)c2F)n(C)c1 [Compound 176, N-(3-Cyano-2-fluorophenyl)-1-methyl-4-[(1-methylyl)sulfamoyl]-1H-pyrrole-2-carboxamide] | 500 nM | 370 nM | > 25 µM
25 | Cn1cc(S(=O)(=O)NC2(C(F)(F)F)CCOCC2)cc1C(=O)Nc1ccc(F)c(C#N)c1 [Compound 247, N-(3-cyano-4-fluoro-phenyl)-1-methyl-4-{[4-(trifluoromethyl)tetrahydropyran-4-yl]sulfamoyl}-1H-pyrrole-2-carboxamide] | 30 nM | 30 nM | > 25 µM
26 | Cc1cc(NC(=O)c2cc(S(=O)(=O)NC3(C)COC3)cn2C)ccc1Cl [Compound 77, N-(4-Chloro-3-methylphenyl)-1-methyl-4-[(3-methyloxetan-3-yl)sulfamoyl]-1H-pyrrole-2-carboxamide] | 70 nM | 180 nM | > 25 µM
27 | Cn1cc(S(=O)(=O)NC2(C)COC2)cc1C(=O)Nc1cc(Cl)cc(C#N)c1 [Compound 87, N-(3-Chloro-5-cyanophenyl)-1-methyl-4-[(3-methyloxetan-3-yl)sulfamoyl]-1H-pyrrole-2-carboxamide] | 960 nM | > 1000 nM | > 25 µM
28 | Cn1cc(S(=O)(=O)NC2(C)COC2)cc1C(=O)Nc1ccc(F)c(C(F)F)c1 [Compound 39, N-[3-(difluoromethyl)-4-fluoro-phenyl]-1-methyl-4-[(3-methyloxetan-3-yl)sulfamoyl]pyrrole-2-carboxamide] | 50 nM | 40 nM | > 25 µM
29 | Cn1cc(S(=O)(=O)NC2(C(F)(F)F)CCCC2)c(F)c1C(=O)Nc1ccc(F)c(C#N)c1 [Compound 281, N-(3-cyano-4-fluoro-phenyl)-3-fluoro-1-methyl-4-[[1-(trifluoro-methyl)cyclopentyl]sulfamoyl]pyrrole-2-carboxamide] | < 4 nM | 7 nM | > 25 µM
